In ChEMBL document CHEMBL1201862, “PubChem BioAssay data set” (2004):
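Exposure lasted 48 hours, with cells grown in 96-well plates and compounds tested at five concentrations. Here, GI50 denotes the concentration required for 50% inhibition of growth.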 Activity calls are given as the source filed them. Cut-off read from the data, not from the text of the source: active = GI50 up to about 1.1 µM and inactive = higher.

How the values were obtained:
Test in all cases: NCI anticancer screen, dose series, 48 h
786-0 = test system: 786-0
A549 = test system: A549
ACHN = test system: ACHN
CAKI-1 = test system: CAKI-1
CCRF-CEM = test system: CCRF-CEM
COLO 205 = test system: COLO 205
DLD-1 = test system: DLD-1
DMS-273 = test system: DMS-273
EKVX = test system: EKVX
HCC 2998 = test system: HCC 2998
HCT-116 = test system: HCT-116
HCT-15 = test system: HCT-15
HL-60 = test system: HL-60
HOP-62 = test system: HOP-62
HT-29 = test system: HT-29
IGROV-1 = test system: IGROV-1
K562 = test system: K562
KM-20L2 = test system: KM-20L2
KM12 = test system: KM12
LOX IMVI = test system: LOX IMVI
LXFL 529 = test system: LXFL 529
M14 = test system: M14
M19-MEL = test system: M19-MEL
MOLT-4 = test system: MOLT-4
Malme-3M = test system: Malme-3M
NCI-H226 = test system: NCI-H226
NCI-H23 = test system: NCI-H23
NCI-H460 = test system: NCI-H460
NCI-H522 = test system: NCI-H522
OVCAR-3 = test system: OVCAR-3
OVCAR-4 = test system: OVCAR-4
OVCAR-5 = test system: OVCAR-5
OVCAR-8 = test system: OVCAR-8
RPMI-8226 = test system: RPMI-8226
RXF 393 = test system: RXF 393
RXF 631 = test system: RXF 631
SF-268 = test system: SF-268
SF-295 = test system: SF-295
SF-539 = test system: SF-539
SK-MEL-28 = test system: SK-MEL-28
SK-MEL-2 = test system: SK-MEL-2
SK-OV-3 = test system: SK-OV-3
SN12C = test system: SN12C
SNB-19 = test system: SNB-19
SNB-75 = test system: SNB-75
SNB-78 = test system: SNB-78
SR = test system: SR
SW-620 = test system: SW-620
TK-10 = test system: TK-10
U-251 = test system: U-251
UACC-257 = test system: UACC-257
UACC-62 = test system: UACC-62
UO-31 = test system: UO-31
XF498 = test system: XF498
A498 = test system: A498
HOP-92 = test system: HOP-92
SK-MEL-5 = test system: SK-MEL-5

COc1ccc(C2ON(c3ccccc3)CC=C2C)cc1 (stereo unspecified)
GI50 (786-0): > 100 µM (inactive)
GI50 (A549): 62.2 µM (inactive)
GI50 (ACHN): 79.1 µM (inactive)
GI50 (CAKI-1): 47.8 µM (inactive)
GI50 (CCRF-CEM): 33.7 µM (inactive)
GI50 (COLO 205): 99.3 µM (inactive)
GI50 (DLD-1): 79.8 µM (inactive)
GI50 (DMS-273): 64.7 µM (inactive)
GI50 (EKVX): > 100 µM (inactive)
GI50 (HCC 2998): > 100 µM (inactive)
GI50 (HCT-116): 66.7 µM (inactive)
GI50 (HCT-15): 65.9 µM
GI50 (HL-60): 34.6 µM (inactive)
GI50 (HOP-62): > 100 µM (inactive)
GI50 (HT-29): 34.4 µM (inactive)
GI50 (IGROV-1): > 100 µM (inactive)
GI50 (K562): 60.5 µM (inactive)
GI50 (KM-20L2): 5.48 µM (inactive)
GI50 (KM12): 99.1 µM (inactive)
GI50 (LOX IMVI): > 100 µM (inactive)
GI50 (LXFL 529): 66.8 µM (inactive)
GI50 (M14): 80.7 µM (inactive)
GI50 (M19-MEL): 43.2 µM (inactive)
GI50 (MOLT-4): 52.4 µM (inactive)
GI50 (Malme-3M): > 100 µM (inactive)
GI50 (NCI-H226): > 100 µM (inactive)
GI50 (NCI-H23): 52.7 µM (inactive)
GI50 (NCI-H460): > 100 µM (inactive)
GI50 (NCI-H522): 19.2 µM (inactive)
GI50 (OVCAR-3): > 100 µM (inactive)
GI50 (OVCAR-4): 34.5 µM (inactive)
GI50 (OVCAR-5): 34 µM (inactive)
GI50 (OVCAR-8): > 100 µM (inactive)
GI50 (RPMI-8226): 43.7 µM (inactive)
GI50 (RXF 393): 34.4 µM (inactive)
GI50 (RXF 631): 46.6 µM (inactive)
GI50 (SF-268): > 100 µM (inactive)
GI50 (SF-295): 93.8 µM (inactive)
GI50 (SF-539): > 100 µM (inactive)
GI50 (SK-MEL-28): 61.8 µM (inactive)
GI50 (SK-MEL-2): 24 µM (inactive)
GI50 (SK-OV-3): > 100 µM (inactive)
GI50 (SN12C): > 100 µM (inactive)
GI50 (SNB-19): > 100 µM (inactive)
GI50 (SNB-75): 94.8 µM (inactive)
GI50 (SNB-78): > 100 µM (inactive)
GI50 (SR): 37.2 µM (inactive)
GI50 (SW-620): > 100 µM (inactive)
GI50 (TK-10): > 100 µM (inactive)
GI50 (U-251): 99.8 µM (inactive)
GI50 (UACC-257): 42.5 µM (inactive)
GI50 (UACC-62): 87.1 µM (inactive)
GI50 (UO-31): 34 µM (inactive)
GI50 (XF498): 95.7 µM (inactive)

O=C1OC(c2ccccc2)C2CC3CC4(CCC3CN12)OCCO4 (stereo unspecified)
GI50 (786-0): > 100 µM (inactive)
GI50 (A498): > 100 µM (inactive)
GI50 (A549): > 100 µM (inactive)
GI50 (CAKI-1): > 100 µM (inactive)
GI50 (CCRF-CEM): > 100 µM (inactive)
GI50 (COLO 205): > 100 µM (inactive)
GI50 (DMS-273): > 100 µM (inactive)
GI50 (EKVX): > 100 µM (inactive)
GI50 (HCT-116): > 100 µM (inactive)
GI50 (HCT-15): > 100 µM
GI50 (HL-60): 67.8 µM (inactive)
GI50 (HOP-62): > 100 µM (inactive)
GI50 (HOP-92): 80 µM (inactive)
GI50 (HT-29): > 100 µM (inactive)
GI50 (IGROV-1): > 100 µM (inactive)
GI50 (K562): 45.9 µM (inactive)
GI50 (KM-20L2): > 100 µM (inactive)
GI50 (KM12): > 100 µM (inactive)
GI50 (LOX IMVI): > 100 µM (inactive)
GI50 (LXFL 529): 32.7 µM (inactive)
GI50 (M14): > 100 µM (inactive)
GI50 (MOLT-4): > 100 µM (inactive)
GI50 (NCI-H226): > 100 µM (inactive)
GI50 (NCI-H23): 36.9 µM (inactive)
GI50 (NCI-H460): > 100 µM (inactive)
GI50 (NCI-H522): 0.142 µM (active)
GI50 (OVCAR-3): > 100 µM (inactive)
GI50 (OVCAR-4): 88.5 µM (inactive)
GI50 (OVCAR-5): > 100 µM (inactive)
GI50 (OVCAR-8): > 100 µM (inactive)
GI50 (RPMI-8226): 94 µM (inactive)
GI50 (RXF 393): > 100 µM (inactive)
GI50 (RXF 631): > 100 µM (inactive)
GI50 (SF-268): > 100 µM (inactive)
GI50 (SF-295): > 100 µM (inactive)
GI50 (SF-539): > 100 µM (inactive)
GI50 (SK-MEL-28): > 100 µM (inactive)
GI50 (SK-MEL-2): > 100 µM (inactive)
GI50 (SK-MEL-5): 17.9 µM (inactive)
GI50 (SK-OV-3): > 100 µM (inactive)
GI50 (SN12C): > 100 µM (inactive)
GI50 (SNB-19): > 100 µM (inactive)
GI50 (SNB-75): 52 µM (inactive)
GI50 (SNB-78): > 100 µM (inactive)
GI50 (SR): > 100 µM (inactive)
GI50 (SW-620): > 100 µM (inactive)
GI50 (TK-10): > 100 µM (inactive)
GI50 (U-251): > 100 µM (inactive)
GI50 (UACC-257): > 100 µM (inactive)
GI50 (UACC-62): 21.5 µM (inactive)
GI50 (UO-31): > 100 µM (inactive)
GI50 (XF498): 70.8 µM (inactive)
